Literature values as cited in patent publication US9750700B2 (Natco Pharma Limited, priority 2011, dated 2017).

Conditions: crystalline form of Imatinib mesylate

For CS(=O)(=O)O.Cc1ccc(NC(=O)c2ccc(CN3CCN(C)CC3)cc2)cc1Nc1nccc(-c2cccnc2)n1 [α-crystalline form], the hygroscopicity is listed as “hygroscopic”.
